Experimental data as given in patent US4711898A, “4-quinolone derivatives having anti-inflammatory, anti-allergic, antitussive, expectorant and antithrombotic activity” (Nippon Shinyaku Co., Ltd., priority 1982, dated 1987).

Assays:
[1] = system: passive cutaneous anaphylaxis (DNP-As homocytotropic antiserum); test: passive cutaneous anaphylatic assay (PCA) in rats; type: in vivo, Wistar strain rats; settings: 10 mg/kg orally, one hour before antigen; for inhibition in vivo at 10 mg/kg: Rattus norvegicus, po, 1 h, read-out: PCA Inhibition Ratio %; for PCA Inhibition Ratio %: listed as H
Procedure: (§1) The compounds of the present invention have been evaluated for their anti-allergenic action by passive cutaneous anaphylatic assay (PCA) in rats and by measuring the anti-SRS-A action using ileus of guinea pigs.
(i) Antiserum abundant in homocytotropic antibody is prepared by the same method as Tada and Okumura did (cf. Journal of Immunology, vol. 106, page 1002, 1971). Thus, 1 mg (calculated as an amount of protein) of DNP-As (2,4-dinitrophenylcoupled ascaris extract) prepared by methods of Strejan and Campbell (Journal of Immunology, vol. 98, p. 893, 1967) and of Eisen (Journal of Amer. Chem. Soc., vol. 75, p 4593, 1953) and 1×10^10pertussis vaccine are administered to each paw of Wistar strain rats (180 to 200 grams body weights) by dividing the dose by four. Five days later, 0.5 mg of DNP-As is administered into muscle of back. Eight days later from the initial immunization, blood is taken from discending aorta under anesthetizing with ether, the resulting serum is stored at -80° and is melted before use.
(ii) Effect of tested compounds is investigated as follows:
Anti-serum obtained by th method (i) is diluted with physiological saline solution double by double successively and 0.05 ml of each diluted solution is administered into the back of Wistar strain rats (140 to 160 grams body weight) intradermally. After 72 hours, a solution of 2 mg (calculated as protein) of DNP-As and 2.5 mg of Evans Blue dissolved in 1 ml of physiological saline solution is administered intraveously at a dose of 5 ml/kg. After 30 minutes from the antigen solution administration, the animals are killed and the diameters of blue spots which appeared at the place where antiserum was administered were measured. The PCA test is conducted by the same method as already described using a diluted solutions of antiserum which always show 10 mm or more of spot diameters and the effect of the test compounds is judged. Thus antiserum diluted solutions are administered into two places in the back. Test compounds are administered orally at the dose of 10 mg/kg one hour before administration of the antigen solution. From the skin of reacted parts of killed animals, leaked or emitted dyestuff is extracted and the amount of the dyestuff is measured. The inhibition ratio is calculated by the following expression: [formula] in which A' is an amount of dyestuff in the group treated with the test compounds and A is that in the control group.

[2] = system: SRS-A (slow reacting substance of anaphylaxis) contraction of ileum; test: Anti-SRS-A action using ileus of guinea pigs; type: cell-based, Hartley strain male guinea pigs; settings: 5 min, guinea pig ileum, SRS-A 20 units, compound five minutes before; for inhibition at 1 µM: Cavia porcellus, 1/1000 mM, read-out: 1/1000 mM SRS-A Inhibition Ratio %
Procedure: as §1
Anti-SRS-A action (An anti-acton against slow reacting substance of anaphylaxis).
Hartley strain male guinea pigs (300 to 350 grams body weight) are killed and 1.0 to 1.5 cm of ileum is immeidiately excised from ileocecal parts and is suspended in 10 ml of Tyrode solution (95% 02 -5% CO2 saturation) containing 10^-7 g/ml of atropine and 10^-6 g/ml of pyrilamine. SRS-A (20 units) (the amount of SRS-A showing the same contradiction as 5 ng of histamine is defined as 1 unit) prepared by using sensitized guinea pig lung is given to cause contraction there. Then antagonistic action of test compounds treated five minutes ago against the contraction is measured and recorded via isotonic transducer. [formula] in which A' is a height of contraction of SRS-A+test compound and A is that of SRS-A.

| SMILES | inhibition in vivo at 10 mg/kg [1] | inhibition at 1 µM [2] | PCA Inhibition Ratio % ([1]; H) | PCA Inhibition Ratio % ([1]; Na salt) | 1/1000 mM SRS-A Inhibition Ratio % ([2]; listed as H, Na salt, 1 µM) |
| --- | --- | --- | --- | --- | --- |
| COc1ccccc1C1=Nc2ccc(C(=O)O)cc2C(=O)C1 [Example 57, 2-(2-methoxyphenyl)-4-quinolone-6-carboxylic acid] | 20.4% | 27.7% | – | – | – |
| CCOc1ccccc1-c1cc(=O)c2cc(C(=O)OC)ccc2[nH]1 [Example 58] | 23.1% | 63% | – | – | – |
| CCOc1ccccc1-c1cc(=O)c2cc(C(=O)O)ccc2[nH]1 [Example 59] | 15.8% | 24.6% | – | – | – |
| COC(=O)c1ccc2[nH]c(-c3ccccc3OC(C)C)cc(=O)c2c1 [Example 60] | 21.2% | 58.8% | – | – | – |
| CC(C)Oc1ccccc1-c1cc(=O)c2cc(C(=O)O)ccc2[nH]1 [Example 61] | 20.1% | 31.8% | – | – | – |
| COC(=O)c1ccc2[nH]c(-c3ccc(OC)cc3)cc(=O)c2c1 [Example 62] | 19% | 27.4% | – | – | – |
| COc1ccc(-c2cc(=O)c3cc(C(=O)O)ccc3[nH]2)cc1 [Example 63] | 18.4% | 23% | – | – | – |
| COc1ccc(-c2cc(=O)c3cc(C(=O)O)ccc3[nH]2)c(OC)c1 [Example 65] | 26.9% | 27.3% | – | – | – |
| COC(=O)c1ccc2[nH]c(-c3ccc(OC)c(OC)c3)cc(=O)c2c1 [Example 66] | 25.4% | 25.7% | – | – | – |
| COc1ccc(-c2cc(=O)c3cc(C(=O)O)ccc3[nH]2)cc1OC [Example 67] | 17.4% | 25% | – | – | – |
| COC(=O)c1ccc(-c2cc(=O)c3cc(C(=O)OC)ccc3[nH]2)cc1 [Example 68] | 19.8% | 36.8% | – | – | – |
| O=C(O)c1ccc(-c2cc(=O)c3cc(C(=O)O)ccc3[nH]2)cc1 [Example 69] | 25.8% | 27.9% | – | – | – |
| O=C(O)c1ccc2[nH]c(-c3ccncc3)cc(=O)c2c1 [Example 71] | 25.6% | 25% | – | – | – |
| COC(=O)c1ccc2[nH]c(-c3cccnc3)cc(=O)c2c1 [Example 72] | 17.8% | 22% | – | – | – |
| O=C(O)c1ccc2[nH]c(-c3cccnc3)cc(=O)c2c1 [Example 73] | 20.4% | 23.8% | – | – | – |
| COC(=O)c1ccc2[nH]c(-c3ccccn3)cc(=O)c2c1 [Example 74] | 23.1% | 25% | – | – | – |
| O=C(O)c1ccc2[nH]c(-c3ccccn3)cc(=O)c2c1 [Example 75] | 20.4% | 28.9% | – | – | – |
| O=C(O)c1ccc2[nH]c(-c3ccco3)cc(=O)c2c1 [Example 77] | 17.4% | 21% | – | – | – |
| COC(=O)c1ccc2[nH]c(-c3cccs3)cc(=O)c2c1 [Example 78] | 26.7% | 23.3% | – | – | – |
| O=C(O)c1ccc2[nH]c(-c3cccs3)cc(=O)c2c1 [Example 79] | 19.8% | 19.5% | – | – | – |
| O=C(O)c1cccc2c(=O)cc(-c3ccccc3)[nH]c12 [Example 81] | – | 26.4% | 35.3% | – | – |
| O=C(O)c1cccc2c(=O)cc(-c3ccccc3)[nH]c12 [Example 82] | – | – | – | 10.0% | 27.3% |
| O=C(O)c1cccc2c(=O)cc(-c3cccc(Cl)c3)[nH]c12 [Example 87] | 19.3% | 20.7% | – | – | – |
| COC(=O)c1cccc2c(=O)cc(-c3ccc(Cl)cc3Cl)[nH]c12 [Example 88] | 17.5% | 45.5% | – | – | – |
| O=C(O)c1cccc2c(=O)cc(-c3ccc(Cl)cc3Cl)[nH]c12 [Example 90] | 23.4% | 53.6% | – | – | – |

| SMILES | inhibition in vivo at 10 mg/kg [1] | inhibition at 1 µM [2] | PCA Inhibition Ratio % ([1]; H) | PCA Inhibition Ratio % ([1]; Na salt) | 1/1000 mM SRS-A Inhibition Ratio % ([2]; listed as H, Na salt, 1 µM) |
| --- | --- | --- | --- | --- | --- |
| O=C(O)c1cccc2c(=O)cc(-c3ccc(Cl)c(Cl)c3)[nH]c12 [Example 91] | 22.7% | 24.2% | – | – | – |
| Cc1ccc(-c2cc(=O)c3cccc(C(=O)O)c3[nH]2)cc1 [Example 93] | 23.5% | 26.7% | – | – | – |
| Cc1ccc(-c2cc(=O)c3cccc(C(=O)O)c3[nH]2)c(C)c1 [Example 95] | 24.2% | 22.8% | – | – | – |
| CCCCCCCCc1ccc(-c2cc(=O)c3cccc(C(=O)OCC)c3[nH]2)cc1 [Example 96] | 21.5% | 23.8% | – | – | – |
| CCCCCCCCc1ccc(-c2cc(=O)c3cccc(C(=O)O)c3[nH]2)cc1 [Example 97] | 22% | 33.7% | – | – | – |
| COC(=O)c1cccc2c1N=C(c1ccccc1Cl)CC2=O [Example 101, Methyl 2-(2-chlorophenyl)-4-quinolone-8-carboxylate] | 17.4% | 14.7% | – | – | – |
| CCOC(=O)c1cccc2c(=O)cc(-c3ccc(Cl)cc3)[nH]c12 [Example 103] | 14.7% | 12.4% | – | – | – |
| CCOC(=O)c1cccc2c(=O)cc(-c3ccc(C)c(C)c3)[nH]c12 [Example 105] | 17.3% | 10.4% | – | – | – |
| CCCOC(=O)c1cccc2c(=O)cc(-c3ccccc3Cl)[nH]c12 [Example 111] | 2.4% | 7.8% | – | – | – |
| CCCCCCOC(=O)c1cccc2c(=O)cc(-c3ccccc3Cl)[nH]c12 [Example 113] | 10.5% | 20.5% | – | – | – |
| O=C(OCCCO)c1cccc2c(=O)cc(-c3ccccc3Cl)[nH]c12 [Example 115] | 12.4% | 27.4% | – | – | – |
| O=C(OCCCCCO)c1cccc2c(=O)cc(-c3ccccc3Cl)[nH]c12 [Example 116] | 15% | 23.7% | – | – | – |
| O=C(OCCCCCCO)c1cccc2c(=O)cc(-c3ccccc3Cl)[nH]c12 [Example 117] | 50% | 8.7% | – | – | – |
| O=C(OCCOc1ccccc1)c1cccc2c(=O)cc(-c3ccccc3Cl)[nH]c12 [Example 119] | 47% | 73.4% | – | – | – |
| N#CCOC(=O)c1cccc2c(=O)cc(-c3ccccc3Cl)[nH]c12 [Example 121] | 54.4% | 3.4% | – | – | – |
| CC(=O)COC(=O)c1cccc2c(=O)cc(-c3ccccc3Cl)[nH]c12 [Example 122] | 14.7% | 20.4% | – | – | – |
| CCOC(=O)COC(=O)c1cccc2c(=O)cc(-c3ccccc3Cl)[nH]c12 [Example 123] | 16% | 17.4% | – | – | – |
| O=C(OCC(O)CO)c1cccc2c(=O)cc(-c3ccccc3Cl)[nH]c12 (stereo not shown) [Example 126] | 15.3% | 19.2% | – | – | – |
| CC(C)COCCOC(=O)c1cccc2c(=O)cc(-c3ccccc3Cl)[nH]c12 [Example 127] | 13.3% | 25.4% | – | – | – |
| O=C(OCCOCCO)c1cccc2c(=O)cc(-c3ccccc3Cl)[nH]c12 [Example 128] | 10.7% | 25% | – | – | – |
| CCOCCOCCOC(=O)c1cccc2c(=O)cc(-c3ccccc3Cl)[nH]c12 [Example 129] | 5.4% | 10.2% | – | – | – |
| O=C(OCCO)c1cccc2c(=O)cc(-c3cccc(Cl)c3)[nH]c12 [Example 132] | 18.6% | 55.5% | – | – | – |
| Cc1ccccc1-c1cc(=O)c2cccc(C(=O)OCCO)c2[nH]1 [Example 134] | 10.8% | 5.2% | – | – | – |
| Cc1ccc(-c2cc(=O)c3cccc(C(=O)OCCO)c3[nH]2)cc1 [Example 135] | 35% | 27.3% | – | – | – |
| Cc1ccc(-c2cc(=O)c3cccc(C(=O)OCCO)c3[nH]2)cc1C [Example 137] | 20% | 10.8% | – | – | – |
